{"source": "ChEMBL document CHEMBL1143516", "about": "“Mercaptoamide-based non-hydroxamic acid type histone deacetylase inhibitors” (Bioorg Med Chem Lett, 2005)"}
{"target": "Histone deacetylase", "assay": "In vitro inhibitory concentration against Histone deacetylase; Control value 0.06 uM", "assay_type": "protein assay, Homo sapiens", "units": {"IC50": "µM"}}
{"smiles": "O=C(CS)NCCCCCC(=O)Nc1cnc2ccccc2c1", "IC50": 1.1}
{"smiles": "O=C(CCC(=O)Nc1ccccc1)NCCS", "IC50": 12.5}
{"smiles": "O=C(CCCCCCCC(=O)Nc1ccccc1)NCCS", "IC50": 10.2}
{"smiles": "O=C(CS)NCCC(=O)Nc1cnc2ccccc2c1", "IC50": 39.5}
{"smiles": "O=C(NCCS)C(=O)Nc1ccccc1", "IC50": 2.8}
{"smiles": "O=C(CS)NCCCC(=O)Nc1cnc2ccccc2c1", "IC50": 0.66}
{"smiles": "O=C(CS)NCCCCC(=O)Nc1cnc2ccccc2c1", "IC50": 2.8}
{"smiles": "O=C(CCCCCCC(=O)Nc1ccccc1)NCCS", "IC50": 2.35}
{"smiles": "O=C(CCCC(=O)Nc1ccccc1)NCCS", "IC50": 3.1}
{"smiles": "O=C(CCCCCC(=O)Nc1ccccc1)NCCS", "IC50": 2.5}
{"smiles": "O=C(CCCCC(=O)Nc1ccccc1)NCCS", "IC50": 1.5}
{"smiles": "O=C(CCCCCC[N-]CC[S-])Nc1ccccc1.[Zn+2]", "IC50": "> 100"}
{"smiles": "O=C(CC(=O)Nc1ccccc1)NCCS", "IC50": 70}
